This passage reports Kd results from PMC12684325, “SiR‐XActin: A Fluorescent Probe for Imaging Actin Dynamics in Live Cells” (Angewandte Chemie (International Ed. in English), 2025).

In the experiment the test system is T1, F-actin.
T1 construct: gene ACTB; F-actin filaments
The experiment is described as follows: microscopy-based apparent affinity measurement for F-actin (fluorescent probe; fixed-cell staining).

Turning to SiR-XActin [compound 8], the Kd is 557 nM.

In the case of SiR-actin [compound 2], the Kd stood at 6 nM.
